Assay [1] concerns CaLDM I471T. Also on record: method as in PMID 20625155. As to conditions: detergent solubilized CaLDM I471T single-mutation; cited from earlier work.
Assay [2] concerns S. cerevisiae strain AD3Δ ScErg11 (AD3Δ) overexpressing wild-type ScLDM6×His. Nature of the assay: Broth microdilution drug susceptibility assay (MIC80), strain AD3Δ ScErg11. The format is cell-based, Saccharomyces cerevisiae. As to conditions: for MIC80: Saccharomyces cerevisiae, strain AD3Δ, 48 h, 30 °C, pH 6.8, mean (± SEM), n = 3, read-out: MIC80; for effect of ScLDM6×His overexpression on susceptibility to control antifungals: strain AD3Δ vs AD2Δ. The procedure:
(§1) The native ScERG11 gene in yeast cells containing mutant ScERG11-6×His constructs in the PDR5 locus was disrupted by homologous recombination with a cassette encoding the His1 selection marker and sequences homologous with the regions bordering the endogenous ScERG11 ORF to create strains AD3Δ ScErg11 Y140H, AD3Δ ScErg11 I471T and AD3Δ ScErg11Y140H I471T [43]. Transformants were selected on SD-His agar plates incubated at 30 °C for 48–72 h. Genomic DNA was extracted, and DNA sequencing as above was used to confirm deletion of the native ERG11. Strain AD3Δ ScErg11 (denoted as AD3Δ), which overexpresses wild-type ScLDM6×His from the PDR5 locus and has the native ScERG11 gene disrupted, was used as a control strain [43].
(§2) Azole susceptibility was measured as the mean drug concentration required to inhibit 80% of yeast growth (MIC80) compared to a non-drug control, using a standard broth microdilution assay. Serial dilutions of short- (FLC and VCZ), medium- (VT-1161), and long-tailed (ITC and PCZ) azole drugs, and the control drugs micafungin (MCF) and amphotericin B (AMB), were prepared in a 96-well microtiter plate in complete synthetic media lacking uracil, buffered to pH 6.8 [34]. Control and test cells were seeded at an optical density of 600 nm (OD600) of 0.005 (~1.5 × 10^4 colony forming units). After incubation for 48 h at 30 °C with constant agitation (200 rpm), the OD600 nm of each well was measured using a Synergy 2 multi-mode plate reader (BioTek Instruments, Winooski, VT, USA). The experiment was repeated three times (a total of nine measurements for the response of each strain to each drug). GraphPad Prism 5.0 software was used for statistical analysis, using a one-way analysis of variance with a Bonferroni post-hoc test. The statistical significance of comparisons was accepted when p < 0.05.
A general note: Dilution methods test growth across graded concentrations, often in twofold steps.

Assay [3] deals with S. cerevisiae strain AD3Δ ScErg11 I471T expressing ScLDM6×His I471T. Nature of the assay: Broth microdilution drug susceptibility assay (MIC80), strain AD3Δ ScErg11 I471T. The format is cell-based, Saccharomyces cerevisiae. As to conditions: for MIC80: Saccharomyces cerevisiae, strain I471T, 48 h, 30 °C, pH 6.8, mean (± SEM), n = 3; for increased susceptibility compared with AD3Δ: strain AD3Δ ScErg11 I471T, not corrected for expression. The procedure: as §1, §2

The test system of assay [4] is S. cerevisiae strain AD3Δ ScErg11 Y140H expressing ScLDM6×His Y140H. Description: Broth microdilution drug susceptibility assay (MIC80), strain AD3Δ ScErg11 Y140H. The class given is cell-based, Saccharomyces cerevisiae. As to conditions: Saccharomyces cerevisiae; strain Y140H; 48 h, 30 °C, pH 6.8; mean (± SEM), n = 3. The procedure: as §1, §2
Assay [5] concerns S. cerevisiae strain AD3Δ ScErg11 Y140H I471T expressing ScLDM6×His Y140H I471T. Description: Broth microdilution drug susceptibility assay (MIC80), strain AD3Δ ScErg11 Y140H I471T. The class given is cell-based, Saccharomyces cerevisiae. As to conditions: Saccharomyces cerevisiae; strain Y140H + I471T; 48 h, 30 °C, pH 6.8; mean (± SEM), n = 3. The procedure: as §1, §2
Assay [6] relates to S. cerevisiae test and control strains (AD2Δ, AD3Δ and mutants). Description: Broth microdilution MIC80, comparison across the various cell types tested. The format is cell-based, Saccharomyces cerevisiae. As to conditions: p > 0.05. The procedure:
as §2

Assay [7] concerns S. cerevisiae strain AD2Δ (native wild-type ScLDM). Nature of the assay: Broth microdilution drug susceptibility assay (MIC80), host strain AD2Δ. The class given is cell-based. As to conditions: Saccharomyces cerevisiae; strain AD2Δ; 48 h, 30 °C, pH 6.8; mean (± SEM), n = 3; read-out: MIC80. As for the experimental part: Yeast strains used in this study (Supplementary Table S1) were prepared using the AD2Δ strain of S. cerevisiae as a host, using an established protocol. AD2Δ is hypersensitive to xenobiotics due to the deletion of seven major ABC transporters, including those responsible for the efflux of azole drugs. It is also deleted of the PDR3 transcriptional regulator, but contains the gain-of-function Pdr1-3 transcriptional regulator mutation that leads to constitutive overexpression from the PDR5 locus.
as §2

Assay [8] concerns C. albicans Darlington strain. Description: Agarose disk diffusion assay, Darlington strain. The format is cell-based, Candida albicans. As to conditions: no efflux pump inhibitor. The procedure: Agarose diffusion assays were carried out as described previously using the Darlington strain of C. albicans (Pfizer Ltd., Sandwich, UK) and the control C. albicans database strain SC5314, which is not resistant to azoles. The Cdr1p-specific inhibitor RC21v3 and the CaMdr1p-specific inhibitor MCC1189 (MicroCombiChem, Wiesbaden, Germany), included in the assay medium at 6 µM, were used to investigate the contribution of efflux pumps to azole resistance in the Darlington strain [49, 50, 51].

The structures appear in SMILES notation. Starred links: 1 amine or outer side, 2 acyl side, 3 side chain; linkers in the order of their positions; H or OH if unused. Positions of bridges follow the written chain, without caps; N, C: chain ends. Non-standard residues stand in square brackets, D forms with d. Residues, ends and D or L forms follow the SMILES beside them. *: point of attachment. hTyr(3S-OH,4S-OH,3'-OSO3H) = N[C@H](C(=O)O)[C@H](O)[C@@H](O)c1ccc(O)c(OS(=O)(=O)O)c1; Orn(4R-OH,5R-OH) = O=C([C@H](C[C@@H](O)[C@@H](O)N[*:3])N[*:1])[*:2]; Pro(3S-OH,4S-Me) = C[C@H]1CN[C@H](C(=O)O)[C@H]1O; X1 = CCCCCOc1ccc(-c2cc(-c3ccc(C(=O)*)cc3)no2)cc1; Gln(3R-OH) = NC(=O)C[C@@H](O)[C@H](N)C(=O)O; Hyp = O=C(O)[C@@H]1C[C@@H](O)CN1

With `CC(C)=CCC[C@@H](C)[C@H]1CC[C@@]2(C)C3=C(CC[C@]12C)[C@@]1(C)CC[C@H](O)C(C)(C)[C@@H]1CC3` [lanosterol], the “higher affinity for the endogenous substrate than the wild-type protein” value in assay [1] is reported as 2.4 fold.
For orientation: MIC80 means an inhibitory concentration at the 80% level, which refers to growth in some studies and to a panel of isolates in others. Broadly, the MIC is the least concentration at which growth counts as inhibited. In the case of `CCCCCOc1ccc(-c2cc(-c3ccc(C(=O)N[C@H]4C[C@@H](O)[C@@H](O)NC(=O)[C@@H]5[C@@H](O)[C@@H](C)CN5C(=O)[C@H]([C@H](O)CC(N)=O)NC(=O)[C@H]([C@H](O)[C@@H](O)c5ccc(O)c(OS(=O)(=O)O)c5)NC(=O)[C@@H]5C[C@@H](O)CN5C(=O)[C@H]([C@@H](C)O)NC4=O)cc3)no2)cc1` [MCF, micafungin] (X1-[Orn(4R-OH,5R-OH)]T[Hyp][hTyr(3S-OH,4S-OH,3'-OSO3H)][Gln(3R-OH)][Pro(3S-OH,4S-Me)]; lactam 1-C), the MIC80 came out at 0.146 µM in assay [2], 0.164 µM in assay [3], 0.166 µM in assay [4] and 0.174 µM in assay [7]. Further, the “effect of ScLDM6×His overexpression on susceptibility to control antifungals” value in assay [2] is listed as “did not modify susceptibility”. The “increased susceptibility compared with AD3Δ” value in assay [3] is listed as “not”. In assay [5], the minimum inhibitory concentration (MIC) is 0.162 µM. For the same molecule, the “differences between MIC80s for the various cell types tested” value in assay [6] is “no statistically significant differences”.
For the molecule `C[C@@H]1[C@H](O)[C@@H](C)/C=C/C=C/C=C/C=C/C=C/C=C/C=C/[C@H](O[C@@H]2O[C@H](C)[C@@H](O)[C@H](N)[C@@H]2O)C[C@@H]2O[C@](O)(C[C@@H](O)C[C@@H](O)[C@H](O)CC[C@@H](O)C[C@@H](O)CC(=O)O[C@H]1C)C[C@H](O)[C@H]2C(=O)O` [AMB, amphotericin B], the MIC80 was determined as 2.34 µM in assay [2]; 2.26 µM in assay [3]; 2.19 µM in assay [4]; 2.14 µM in assay [5]; 2.18 µM in assay [7]. Also, the “effect of ScLDM6×His overexpression on susceptibility to control antifungals” value in assay [2] is “did not modify susceptibility”. For the same molecule, the “increased susceptibility compared with AD3Δ” value in assay [3] is “not”. Also, in assay [8], the “agarose diffusion susceptibility” value is recorded as “mild resistance”. Besides, in assay [6], the “differences between MIC80s for the various cell types tested” value is given as “no statistically significant differences”.
